Experimental data: PubChem BioAssay (NCI)
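96-well plates; 48 h exposure; 5 concentrations. Endpoints by linear interpolation between flanking doses. Not reached: highest tested concentration assigned. TGI marks complete inhibition of growth.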

Tests used:
Assay in all cases: NCI-60 cell line screen, 48 h
[1] = tested on: SK-OV-3 ovarian
[2] = tested on: CAKI-1 renal
[3] = tested on: HCC-2998 colon
[4] = tested on: KM12 colon
[5] = tested on: M14 melanoma
[6] = tested on: SF-539 CNS
[7] = tested on: KM20L2 colon
[8] = tested on: DLD-1 colon
[9] = tested on: ACHN renal
[10] = tested on: DMS 273 small cell lung
[11] = tested on: SNB-78 CNS
[12] = tested on: DMS 114 small cell lung
[13] = tested on: MDA-N
[14] = tested on: BT-549 breast

| SMILES | TGI [1] [µM] | TGI [2] [µM] | TGI [3] [µM] | TGI [4] [µM] | TGI [5] [µM] | TGI [6] [µM] | TGI [7] [µM] | TGI [8] [µM] | TGI [9] [µM] | TGI [10] [µM] | TGI [11] [µM] | TGI [12] [µM] | TGI [13] [µM] | TGI [14] [µM] |
| --- | --- | --- | --- | --- | --- | --- | --- | --- | --- | --- | --- | --- | --- | --- |
| C\C=C/C=C/C=C/C(=O)O | > 100 | > 100 | > 100 | > 100 | > 100 | > 100 | > 100 | > 100 | > 100 | > 100 | > 100 | > 100 | – | – |
| [N-]=[N+]=C(C(=O)OCC#CCOC(=O)C(=[N+]=[N-])S(=O)(=O)c1ccccc1)S(=O)(=O)c1ccccc1 | > 10 | > 10 | > 10 | > 10 | > 10 | > 10 | – | – | > 10 | – | – | – | > 10 | > 10 |
| COC(=O)c1c(O)ccc2c1c1c(n2Cc2ccc(OC)cc2)C(=O)c2ccccc2C1=O | 48.1 | 86.4 | 7.18 | 45.3 | 32.4 | 29.1 | – | – | 12.6 | – | – | – | 32.7 | 3.06 |
| CC1(C)C2CCC1(C)C(N/C(=C(/C(Cl)=C(Cl)Cl)[N+](=O)[O-])n1nnc3ccccc31)C2 (stereo not drawn) | > 100 | 37 | > 100 | 87.9 | > 100 | > 100 | – | – | 42.1 | – | – | – | > 100 | 48.5 |
| O=C(O)CS(=O)c1ccc2c3c(cccc13)C(=O)c1ccccc1-2 (stereo not drawn) | > 100 | > 100 | > 100 | > 100 | > 100 | > 100 | – | – | > 100 | – | – | – | > 100 | > 100 |
| COc1ccccc1C1=C2C(=O)N(C)C(c3ccccc3OC)=C2C(=O)N1C | > 100 | > 100 | > 100 | > 100 | > 100 | 64.2 | – | – | > 100 | – | – | – | > 100 | > 100 |
| COc1cc2c(cc1OC)C1=Cc3ccc(OC)c(OC)c3C(C#N)N1CC2 (stereo not drawn) | > 100 | > 100 | 51.1 | 58.7 | > 100 | > 100 | – | – | > 100 | – | – | – | > 100 | 63.2 |
| C/C=C1\CN2CCC34c5ccccc5N(C)C35OCC4(C(=O)OC)C1CC25 (stereo not drawn) | > 100 | > 100 | 29.1 | > 100 | 45.4 | > 100 | – | – | > 100 | – | – | – | > 100 | > 100 |
| O=C1OC(C2Cc3ccccc3C2=O)c2ccccc21 (stereo not drawn) | > 100 | > 100 | > 100 | > 100 | > 100 | > 100 | – | – | > 100 | – | – | – | > 100 | > 100 |
| Cc1ccc(S(=O)(=O)N(CC(O)c2ccccc2)c2ccccc2F)cc1 (stereo not drawn) | 38.4 | 33.7 | 53.2 | 42.6 | 31.9 | 30.7 | – | – | 40.1 | – | – | – | 33.8 | 32 |
| O=S(=O)(O)c1ccc2c(N=Nc3ccccc3)c(O)c(S(=O)(=O)O)cc2c1 | > 100 | > 100 | > 100 | > 100 | > 100 | > 100 | – | – | > 100 | – | – | – | > 100 | > 100 |
| COc1ccc2c(c1)c(=O)c1c(NCCCN(C)CCCNc3ccc4c(=O)n(CCN(C)C)c(=O)n5c6ccc(OC)cc6c(=O)c3c45)ccc3c(=O)n(CCN(C)C)c(=O)n2c31 | 4.98 | 0.784 | 0.544 | 1.11 | 2.58 | 1.95 | – | – | 1.42 | – | – | – | 1.49 | 2.12 |
| C/C=C1/CN2[C@@H](C3=C[C@@H]4[C@@H]5N(C3=O)c3ccccc3[C@@]53CCN5C/C(=C/C)[C@@H]4C[C@H]53)C[C@@]34c5ccccc5N5C(=O)CC=C([C@H]1C[C@H]23)[C@H]54 | 16.8 | 15.7 | 8.75 | 17 | 2.37 | 2.87 | – | – | 12.1 | – | – | – | 10.4 | 15.7 |
| Cc1ccccc1C(=O)C#Cc1cn(C2CC(O)C(CO)O2)c(=O)[nH]c1=O (stereo not drawn) | > 100 | > 100 | > 100 | > 100 | > 100 | > 100 | – | – | > 100 | – | – | – | > 100 | > 100 |
| CSc1nc2c(c(=O)n1C)N=C(c1ccc(Cl)cc1)CC(c1ccccc1)N2 (stereo not drawn) | 70.3 | 46.4 | 53.1 | 31.7 | 34.7 | 31.7 | – | – | 44.6 | – | – | – | 30.3 | 56.1 |
| O=C1c2cc([N+](=O)[O-])cnc2S(=O)(=O)N1c1ccc(Br)cc1 | > 100 | > 100 | > 100 | > 100 | > 100 | > 100 | – | – | > 100 | – | – | – | > 100 | > 100 |
| COc1ccc(OC)c(C(=O)/C=C/c2cc(O)c(O)cc2F)c1 | > 67.5 | 27.6 | 1.98 | 13.8 | 19.7 | 0.626 | – | – | > 50.3 | – | – | – | 0.534 | 19.6 |
| COc1ccc(C2c3cc4c(cc3OC(NNC(N)=O)C2C)OCO4)cc1 (stereo not drawn) | > 100 | > 100 | 35 | > 100 | > 60.1 | 4.86 | – | – | > 100 | – | – | – | 6.86 | > 95.7 |
| COC(=O)c1c(C)ccc2c(O)c3c(cc12)C(=O)c1c2c(cc(O)c1C3=O)C1(C)OC(C)(O2)C(O)C(N(C)C)C1O (stereo not drawn) | > 100 | 6.32 | 1.39 | 2.97 | 10.4 | 12.8 | – | – | 4.67 | – | – | – | 2.58 | 10.7 |
| Cc1ccc(C(=O)Cc2nc3ncccc3[nH]c2=O)cc1 | 45.4 | > 100 | > 100 | > 100 | > 100 | 74.9 | – | – | 69.3 | – | – | – | > 100 | 92.5 |
| COc1ccc(/C=C2\Sc3nnc(C)n3N=C2c2cc(F)c(Cl)cc2Cl)cc1OC | 76.9 | 23.7 | 32.6 | 33.1 | 27.5 | 37.7 | – | – | 27.1 | – | – | – | 17.6 | 34.1 |
| O=c1[nH]nc(Cc2ccccc2)n1/N=C/c1ccc([N+](=O)[O-])o1 | > 100 | 25 | 71.6 | 6.49 | 7.1 | 8.94 | – | – | 27.4 | – | – | – | 4.83 | 1.7 |
| CCOC(=O)c1[nH]cnc1/N=N/N(C)N | > 100 | 61.2 | > 100 | 14 | > 100 | > 100 | – | – | > 100 | – | – | – | > 100 | > 100 |
| COC(=O)c1ccc(CCC2=CC(=O)C(Br)=CC2=O)cc1 | 38 | 26.4 | 29.1 | 32.3 | 28.3 | 31.8 | – | – | 25.1 | – | – | – | 31.4 | 23.9 |
| CC(C)=CC(C)C(C(O)CCC1(c2ccoc2)OCCO1)S(=O)(=O)c1ccccc1 (stereo not drawn) | > 100 | > 100 | > 100 | > 100 | > 100 | > 100 | – | – | > 100 | – | – | – | > 100 | > 100 |
